The record followed here is ChEMBL document CHEMBL5291721, “A preclinical secondary pharmacology resource illuminates target-adverse drug reaction associations of marketed drugs” (Nat Commun, 2023).

Molecules are shown by their SMILES. A value given as a limit tells only on which side of the number the result lay.

By AC50 is commonly meant the concentration at which the activity in the assay is half-maximal.

For assay [1], the target named is Sodium-dependent dopamine transporter (Homo sapiens, UniProt Q01959).
Chain of Sodium-dependent dopamine transporter (Q01959 whole entry): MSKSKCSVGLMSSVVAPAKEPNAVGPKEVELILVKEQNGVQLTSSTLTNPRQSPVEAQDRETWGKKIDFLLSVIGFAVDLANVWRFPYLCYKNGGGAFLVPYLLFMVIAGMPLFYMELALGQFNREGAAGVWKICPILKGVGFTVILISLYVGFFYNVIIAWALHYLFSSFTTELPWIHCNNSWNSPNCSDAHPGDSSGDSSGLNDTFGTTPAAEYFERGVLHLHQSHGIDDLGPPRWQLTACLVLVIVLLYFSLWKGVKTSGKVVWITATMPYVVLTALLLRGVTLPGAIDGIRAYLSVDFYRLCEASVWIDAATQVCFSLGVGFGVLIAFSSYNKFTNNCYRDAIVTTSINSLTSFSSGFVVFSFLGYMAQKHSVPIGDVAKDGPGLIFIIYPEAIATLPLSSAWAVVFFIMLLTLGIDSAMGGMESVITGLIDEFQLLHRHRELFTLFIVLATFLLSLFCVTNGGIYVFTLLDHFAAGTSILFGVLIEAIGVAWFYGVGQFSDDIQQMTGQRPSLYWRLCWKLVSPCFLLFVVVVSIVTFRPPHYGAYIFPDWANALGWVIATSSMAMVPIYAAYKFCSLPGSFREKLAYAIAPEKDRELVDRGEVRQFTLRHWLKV
The target of a further assay is Bile salt export pump (Homo sapiens, UniProt O95342). It is filed as functional.
Chain of Bile salt export pump (O95342 whole entry): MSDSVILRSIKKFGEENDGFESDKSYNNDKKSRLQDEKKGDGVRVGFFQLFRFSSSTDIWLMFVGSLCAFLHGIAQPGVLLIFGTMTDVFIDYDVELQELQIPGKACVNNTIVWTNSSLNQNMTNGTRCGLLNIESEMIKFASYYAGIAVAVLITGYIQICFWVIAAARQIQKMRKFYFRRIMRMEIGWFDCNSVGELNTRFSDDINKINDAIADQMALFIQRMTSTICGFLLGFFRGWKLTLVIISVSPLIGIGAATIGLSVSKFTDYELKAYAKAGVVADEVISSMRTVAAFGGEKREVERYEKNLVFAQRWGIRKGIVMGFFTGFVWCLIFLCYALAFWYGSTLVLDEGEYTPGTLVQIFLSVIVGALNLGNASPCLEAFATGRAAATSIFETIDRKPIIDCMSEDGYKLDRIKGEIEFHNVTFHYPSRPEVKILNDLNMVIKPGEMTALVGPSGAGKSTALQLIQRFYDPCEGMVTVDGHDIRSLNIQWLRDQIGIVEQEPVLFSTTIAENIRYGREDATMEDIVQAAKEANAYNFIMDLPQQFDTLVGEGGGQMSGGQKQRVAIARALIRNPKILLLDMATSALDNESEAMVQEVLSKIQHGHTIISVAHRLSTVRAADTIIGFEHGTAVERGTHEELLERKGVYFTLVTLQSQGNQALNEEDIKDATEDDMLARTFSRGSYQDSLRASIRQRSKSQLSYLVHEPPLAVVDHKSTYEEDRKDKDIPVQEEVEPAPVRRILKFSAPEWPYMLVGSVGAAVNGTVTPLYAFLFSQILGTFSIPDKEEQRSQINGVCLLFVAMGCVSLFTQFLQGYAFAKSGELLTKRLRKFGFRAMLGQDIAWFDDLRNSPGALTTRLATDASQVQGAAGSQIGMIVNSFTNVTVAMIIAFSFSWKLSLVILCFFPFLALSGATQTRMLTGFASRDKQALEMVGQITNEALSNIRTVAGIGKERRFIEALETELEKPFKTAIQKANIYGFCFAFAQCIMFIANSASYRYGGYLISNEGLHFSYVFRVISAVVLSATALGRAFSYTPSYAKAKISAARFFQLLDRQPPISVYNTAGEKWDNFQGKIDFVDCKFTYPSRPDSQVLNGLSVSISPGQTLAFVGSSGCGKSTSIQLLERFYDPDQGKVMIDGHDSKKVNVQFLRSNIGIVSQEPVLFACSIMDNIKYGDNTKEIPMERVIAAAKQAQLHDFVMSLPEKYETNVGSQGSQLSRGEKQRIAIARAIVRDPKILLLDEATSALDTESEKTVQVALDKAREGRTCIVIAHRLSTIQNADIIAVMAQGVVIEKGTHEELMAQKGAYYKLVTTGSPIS
Assay [2] addresses Beta-1 adrenergic receptor (Homo sapiens, UniProt P08588). In kind it is functional.
For the next assay, the target named is Vasopressin V1a receptor (Homo sapiens, UniProt P37288).
Chain of Vasopressin V1a receptor (P37288 whole entry): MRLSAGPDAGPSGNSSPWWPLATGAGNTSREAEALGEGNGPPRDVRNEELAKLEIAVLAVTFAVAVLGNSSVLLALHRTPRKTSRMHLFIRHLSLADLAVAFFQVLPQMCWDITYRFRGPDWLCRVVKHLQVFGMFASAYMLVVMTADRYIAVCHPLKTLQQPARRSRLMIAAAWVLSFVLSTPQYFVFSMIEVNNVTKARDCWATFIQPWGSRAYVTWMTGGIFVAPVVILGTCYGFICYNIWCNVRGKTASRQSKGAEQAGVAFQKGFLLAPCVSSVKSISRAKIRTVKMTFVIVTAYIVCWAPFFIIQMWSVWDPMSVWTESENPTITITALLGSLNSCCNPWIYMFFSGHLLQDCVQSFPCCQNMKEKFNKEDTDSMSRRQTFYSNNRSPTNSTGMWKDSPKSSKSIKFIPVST
Assay [3] deals with T1, Amine oxidase [flavin-containing] A (Homo sapiens, UniProt P21397).
T1 sequence (P21397 whole entry): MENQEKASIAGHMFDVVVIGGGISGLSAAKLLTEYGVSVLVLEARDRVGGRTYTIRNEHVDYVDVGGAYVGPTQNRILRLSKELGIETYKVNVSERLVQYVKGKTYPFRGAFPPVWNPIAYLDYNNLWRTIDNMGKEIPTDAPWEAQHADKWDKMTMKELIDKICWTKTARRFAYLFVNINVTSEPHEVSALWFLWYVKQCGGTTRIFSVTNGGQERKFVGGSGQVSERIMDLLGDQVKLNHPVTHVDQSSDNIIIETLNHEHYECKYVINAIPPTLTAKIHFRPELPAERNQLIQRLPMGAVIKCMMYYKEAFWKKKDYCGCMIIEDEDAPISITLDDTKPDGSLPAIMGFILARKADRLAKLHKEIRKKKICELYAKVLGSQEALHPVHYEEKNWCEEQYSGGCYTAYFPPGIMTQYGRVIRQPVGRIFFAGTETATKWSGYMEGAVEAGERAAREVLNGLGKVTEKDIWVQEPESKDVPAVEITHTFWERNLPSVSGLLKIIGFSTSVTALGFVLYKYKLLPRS
It is filed as functional.

Another assay concerns the target T2, Adenosine receptor A3 (Homo sapiens, UniProt P0DMS8).
T2 sequence (P0DMS8 whole entry): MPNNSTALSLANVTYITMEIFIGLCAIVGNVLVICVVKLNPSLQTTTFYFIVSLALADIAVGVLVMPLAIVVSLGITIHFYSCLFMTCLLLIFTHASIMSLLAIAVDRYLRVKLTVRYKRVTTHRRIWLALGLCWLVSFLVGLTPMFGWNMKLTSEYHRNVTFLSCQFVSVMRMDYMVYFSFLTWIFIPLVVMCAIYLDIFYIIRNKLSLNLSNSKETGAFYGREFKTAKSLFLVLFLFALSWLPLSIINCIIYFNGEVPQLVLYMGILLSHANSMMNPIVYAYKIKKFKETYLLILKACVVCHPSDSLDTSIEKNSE

Assay [4] has as its target Neuronal acetylcholine receptor subunit alpha-4 (Homo sapiens, UniProt P43681).
Assay [5] addresses 5-hydroxytryptamine receptor 2B (Homo sapiens, UniProt P41595). It is filed as functional, cell-based.
Assay [6] has as its target T3, Cholecystokinin receptor type A (Homo sapiens, UniProt P32238).
T3 sequence (P32238 whole entry): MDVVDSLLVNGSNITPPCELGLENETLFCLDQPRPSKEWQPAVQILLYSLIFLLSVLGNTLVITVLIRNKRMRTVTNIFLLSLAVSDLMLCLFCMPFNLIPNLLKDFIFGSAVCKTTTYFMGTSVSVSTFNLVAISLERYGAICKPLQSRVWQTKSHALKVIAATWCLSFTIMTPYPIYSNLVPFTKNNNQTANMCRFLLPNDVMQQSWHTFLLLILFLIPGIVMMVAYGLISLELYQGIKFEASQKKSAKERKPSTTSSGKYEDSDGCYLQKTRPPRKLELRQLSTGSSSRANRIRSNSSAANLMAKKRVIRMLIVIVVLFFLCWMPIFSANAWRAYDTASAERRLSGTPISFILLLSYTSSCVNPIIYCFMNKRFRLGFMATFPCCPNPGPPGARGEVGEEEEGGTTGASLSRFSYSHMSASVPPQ

Assay [7] deals with T4, 5-hydroxytryptamine receptor 2C (Homo sapiens, UniProt P28335).
T4 sequence (P28335 whole entry): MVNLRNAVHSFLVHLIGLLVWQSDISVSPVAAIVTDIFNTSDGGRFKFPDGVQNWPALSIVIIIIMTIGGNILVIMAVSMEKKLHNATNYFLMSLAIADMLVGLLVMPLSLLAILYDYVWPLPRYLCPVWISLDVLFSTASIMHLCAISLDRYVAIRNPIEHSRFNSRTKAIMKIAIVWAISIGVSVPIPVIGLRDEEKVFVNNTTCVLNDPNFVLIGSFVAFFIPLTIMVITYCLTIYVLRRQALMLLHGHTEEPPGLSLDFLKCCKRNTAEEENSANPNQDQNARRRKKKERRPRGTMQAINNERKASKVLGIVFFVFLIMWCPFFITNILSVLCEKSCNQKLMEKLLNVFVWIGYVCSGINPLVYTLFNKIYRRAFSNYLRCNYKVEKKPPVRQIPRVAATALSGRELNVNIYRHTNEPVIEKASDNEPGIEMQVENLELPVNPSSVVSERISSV

Assay [8] concerns the target T5, Alpha-2C adrenergic receptor (Homo sapiens, UniProt P18825).
T5 sequence (P18825 whole entry): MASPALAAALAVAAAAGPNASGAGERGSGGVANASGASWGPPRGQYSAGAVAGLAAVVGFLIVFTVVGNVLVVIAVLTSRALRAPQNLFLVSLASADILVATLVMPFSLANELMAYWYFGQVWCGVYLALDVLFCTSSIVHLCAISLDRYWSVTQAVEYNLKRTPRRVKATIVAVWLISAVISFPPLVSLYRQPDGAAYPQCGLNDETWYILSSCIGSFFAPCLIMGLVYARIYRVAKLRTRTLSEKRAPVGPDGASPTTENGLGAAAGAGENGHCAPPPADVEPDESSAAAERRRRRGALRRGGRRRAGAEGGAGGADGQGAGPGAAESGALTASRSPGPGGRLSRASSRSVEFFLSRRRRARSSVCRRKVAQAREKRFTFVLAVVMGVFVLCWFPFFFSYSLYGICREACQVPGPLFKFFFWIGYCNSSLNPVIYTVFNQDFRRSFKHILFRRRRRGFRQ
It is filed as functional.
Further: assay procedure not described here.

Chain of Neuronal acetylcholine receptor subunit alpha-4 (P43681 whole entry): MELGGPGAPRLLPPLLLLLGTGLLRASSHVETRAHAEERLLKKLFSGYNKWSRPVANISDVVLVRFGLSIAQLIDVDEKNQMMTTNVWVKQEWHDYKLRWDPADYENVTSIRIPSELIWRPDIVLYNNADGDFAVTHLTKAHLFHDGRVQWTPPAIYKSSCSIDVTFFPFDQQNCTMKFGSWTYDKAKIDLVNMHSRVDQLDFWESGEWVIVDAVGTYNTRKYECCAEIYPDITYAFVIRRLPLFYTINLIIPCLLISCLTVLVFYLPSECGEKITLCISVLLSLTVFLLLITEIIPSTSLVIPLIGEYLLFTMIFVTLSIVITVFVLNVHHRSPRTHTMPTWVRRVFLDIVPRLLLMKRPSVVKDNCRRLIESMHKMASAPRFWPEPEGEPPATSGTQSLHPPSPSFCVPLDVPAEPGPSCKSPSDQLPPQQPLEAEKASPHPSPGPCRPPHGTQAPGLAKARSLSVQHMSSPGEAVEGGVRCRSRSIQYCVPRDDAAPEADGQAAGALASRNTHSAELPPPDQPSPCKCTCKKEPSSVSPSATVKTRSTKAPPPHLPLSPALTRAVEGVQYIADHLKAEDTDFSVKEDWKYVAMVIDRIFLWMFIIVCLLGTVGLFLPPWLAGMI
Chain of Beta-1 adrenergic receptor (P08588 whole entry): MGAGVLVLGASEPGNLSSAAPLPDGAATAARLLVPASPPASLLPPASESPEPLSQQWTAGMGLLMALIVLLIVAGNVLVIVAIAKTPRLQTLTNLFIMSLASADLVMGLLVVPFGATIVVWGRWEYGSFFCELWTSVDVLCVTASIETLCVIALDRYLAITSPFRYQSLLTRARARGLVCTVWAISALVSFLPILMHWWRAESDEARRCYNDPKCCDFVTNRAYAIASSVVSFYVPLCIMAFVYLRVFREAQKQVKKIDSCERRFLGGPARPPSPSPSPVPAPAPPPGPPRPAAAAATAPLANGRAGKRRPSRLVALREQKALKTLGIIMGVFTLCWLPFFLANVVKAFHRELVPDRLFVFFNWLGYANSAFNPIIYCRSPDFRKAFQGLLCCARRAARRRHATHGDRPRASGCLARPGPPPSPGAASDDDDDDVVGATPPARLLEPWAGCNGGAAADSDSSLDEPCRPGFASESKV
Chain of 5-hydroxytryptamine receptor 2B (P41595 whole entry): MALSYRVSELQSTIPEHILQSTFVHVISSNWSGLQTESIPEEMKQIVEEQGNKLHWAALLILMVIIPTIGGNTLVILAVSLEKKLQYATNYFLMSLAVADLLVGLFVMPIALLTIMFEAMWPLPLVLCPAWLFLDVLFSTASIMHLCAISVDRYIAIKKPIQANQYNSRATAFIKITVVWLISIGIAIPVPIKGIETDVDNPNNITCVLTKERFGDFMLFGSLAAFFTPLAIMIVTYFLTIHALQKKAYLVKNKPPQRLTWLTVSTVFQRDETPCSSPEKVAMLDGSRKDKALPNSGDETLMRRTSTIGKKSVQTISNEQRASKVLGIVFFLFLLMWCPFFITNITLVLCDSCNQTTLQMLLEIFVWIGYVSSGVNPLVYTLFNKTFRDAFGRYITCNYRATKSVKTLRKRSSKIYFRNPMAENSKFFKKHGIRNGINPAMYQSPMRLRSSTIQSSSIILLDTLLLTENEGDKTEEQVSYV

`CC1(C)NC(=O)N(c2ccc([N+](=O)[O-])c(C(F)(F)F)c2)C1=O` [NILUTAMIDE]: the AC50 in assay [1] was greater than 30 µM; on Bile salt export pump, greater than 300 µM; in assay [2], greater than 30 µM; on Vasopressin V1a receptor it was greater than 30 µM; in assay [3], greater than 30 µM; at Adenosine receptor A3, greater than 30 µM. Further, the AC50 in assay [4], in [5], in assay [6], in [7] and in [8] was greater than 30 µM each time.

Regarding `Cc1nc([N+](=O)[O-])cn1-c1ccc([N+](=O)[O-])cc1` [NITREFAZOLE], the AC50 was greater than 30 µM in assay [1]; greater than 300 µM on Bile salt export pump; greater than 30 µM in assay [2]; greater than 30 µM at Vasopressin V1a receptor; greater than 30 µM in assay [3]; greater than 30 µM at Adenosine receptor A3. The AC50 in assay [4], in assay [5], in assay [6], in assay [7] and in assay [8] was greater than 30 µM in each case.

With `CC[C@H]1[C@@H](O)[C@@H]2[C@H](CC[C@]3(C)[C@@H]([C@H](C)CCC(=O)O)CC[C@@H]23)[C@@]2(C)CC[C@@H](O)C[C@@H]12` [OBETICHOLIC ACID], the half-maximal activity concentration (AC50) in assay [1] was greater than 30 µM; on Bile salt export pump, greater than 300 µM; in assay [2], greater than 30 µM; on Vasopressin V1a receptor, greater than 30 µM; in assay [3], greater than 30 µM; on Adenosine receptor A3, 23 µM. The AC50 in [4], in [5], in assay [6], in assay [7] and in assay [8] was greater than 30 µM each time.

For the compound `COc1ccc(CC(C)(C)NC[C@H](O)c2cc(O)cc3c2OCC(=O)N3)cc1` [OLODATEROL], the AC50 in assay [1] is 11 µM; on Bile salt export pump, greater than 300 µM; in [2], 0.58 µM; at Vasopressin V1a receptor it was greater than 30 µM; in assay [3], greater than 30 µM; on Adenosine receptor A3, greater than 30 µM. The AC50 in [4], in assay [5], in assay [6], in assay [7] and in assay [8] was greater than 30 µM in each case.

As for `C1CCC(C(CC2CCCCN2)C2CCCCC2)CC1` (stereo unspecified) [PERHEXILINE], the AC50 in [1] was 7.05 µM; at Bile salt export pump, 72 µM; in [2], greater than 30 µM; on Vasopressin V1a receptor, greater than 30 µM; in [3] it was greater than 30 µM; on Adenosine receptor A3, 14.1 µM. The AC50 is greater than 3 µM in assay [4]; 12 µM in [5]; greater than 30 µM in assay [6]; greater than 30 µM in [7]; 16.5 µM in [8].

Turning to `COCCCN1CCC(NC(=O)c2cc(Cl)c(N)c3c2OCC3)CC1` [PRUCALOPRIDE], the AC50 in assay [1] was greater than 30 µM; at Bile salt export pump it was greater than 300 µM; in assay [2] it was greater than 30 µM; at Vasopressin V1a receptor, greater than 30 µM; in assay [3], greater than 30 µM; on Adenosine receptor A3 it was greater than 30 µM. For the same compound, the AC50 in [4] is greater than 30 µM; in [5] it was greater than 30 µM; in assay [6], greater than 30 µM; in assay [7], greater than 30 µM; in [8], 14 µM.

With `COc1ccccc1OCC(O)CN1CCN(CC(=O)Nc2c(C)cccc2C)CC1` (stereo unspecified) [RANOLAZINE], the AC50 in assay [1] was greater than 30 µM; on Bile salt export pump it was greater than 300 µM; in assay [2], 7.8 µM; at Vasopressin V1a receptor, greater than 30 µM; in [3] it was greater than 30 µM; at Adenosine receptor A3 it was greater than 30 µM. For the same compound, the AC50 was greater than 30 µM in assay [4]; greater than 30 µM in [5]; greater than 30 µM in assay [6]; greater than 30 µM in assay [7]; 1.4 µM in [8].

`Cc1c(C(=O)NN2CCCCC2)nn(-c2ccc(Cl)cc2Cl)c1-c1ccc(Cl)cc1` [RIMONABANT]: the AC50 in [1] is 23 µM; at Bile salt export pump, 11.6 µM; in [2], greater than 30 µM; on Vasopressin V1a receptor, 30 µM; in assay [3] it was greater than 30 µM; at Adenosine receptor A3 it was 3.76 µM. The AC50 in [4] is greater than 10 µM; in assay [5] it was greater than 30 µM; in [6], 17 µM; in [7], greater than 30 µM; in [8], 13 µM.

With `CO[C@H]1C[C@@H]2CC[C@@H](C)[C@@](O)(O2)C(=O)C(=O)N2CCCC[C@H]2C(=O)O[C@H]([C@H](C)C[C@@H]2CC[C@@H](O)[C@H](OC)C2)CC(=O)[C@H](C)/C=C(\C)[C@@H](O)[C@@H](OC)C(=O)[C@H](C)C[C@H](C)/C=C/C=C/C=C/1C` [SIROLIMUS], the AC50 was greater than 30 µM in [1]; 1.01 µM on Bile salt export pump; greater than 10 µM in [2]; greater than 30 µM at Vasopressin V1a receptor; 5.6 µM in [3]; 21.3 µM at Adenosine receptor A3. The half-maximal activity concentration (AC50) in [4] is greater than 10 µM; in assay [5], greater than 10 µM; in [6], greater than 30 µM; in assay [7], greater than 30 µM; in [8], greater than 10 µM.

With `Cc1cn([C@H]2C=C[C@@H](CO)O2)c(=O)[nH]c1=O` [STAVUDINE], the AC50 in [1] was greater than 10 µM; on Bile salt export pump, greater than 300 µM; in assay [2], greater than 10 µM; on Vasopressin V1a receptor, greater than 10 µM; in assay [3] it was greater than 30 µM; at Adenosine receptor A3, greater than 30 µM. In addition, the AC50 was greater than 10 µM in [4]; greater than 10 µM in [5]; greater than 30 µM in assay [6]; greater than 30 µM in assay [7]; greater than 10 µM in [8].

`Cn1nnc2c(C(N)=O)ncn2c1=O` [TEMOZOLOMIDE]: the AC50 in assay [1] was greater than 30 µM; at Bile salt export pump, greater than 300 µM; in assay [2], greater than 30 µM; on Vasopressin V1a receptor, greater than 30 µM; in [3] it was greater than 30 µM; on Adenosine receptor A3, greater than 30 µM. The AC50 in [4], in assay [5], in assay [6], in [7] and in [8] was greater than 30 µM throughout.
